According to US6737425B1, “N,N-substituted cyclic amine derivatives” (Eisai Co., Ltd., priority 1998, dated 2004):
pIC50: −log10 of the molar value. Values joined by “and” are separate entries in the source; they are usually repeats but may differ in a detail not shown here. Equal values may be shown once.

Experiments:
[1] = test system: voltage-dependent calcium channels (cerebral cortex synaptosome); assay: Measurement of voltage-dependent calcium channel activity by the use of a fluorescent pigment (fura 2); assay type: cell-based; settings: rat cerebral cortex synaptosome, fura 2, KCl stimulation, compound incubated 10 minutes
Outline: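 Synaptosomes were prepared from rat cerebral cortex by sucrose homogenisation and 0.8 M sucrose gradient centrifugation. They were loaded with fura-2/AM by mixing with an equal volume of 4 μM loading solution for 40 min at room temperature. Verapamil hydrochloride served as the reference compound.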

[2] = test system: rat model with occlusion in the middle cerebral artery; assay: Effect (II) of reducing infarct volume in a rat model with occlusion in the middle cerebral artery (permanent occlusion); assay type: in vivo; settings: for Infarct volume in the cerebral cortex, Mean: from two hours after occlusion, 6 hours, 24 hours after occlusion
Protocol: Effect (II) of Reducing Infarct volume in a Rat Model with Occlusion in the Middle Cerebral Artery
The typical example of the compound of the present invention (the compound in Example 1) was compared with compounds disclosed in JP 8-508037-A (WO 94/25469, U.S. Pat. No. 5,750,525), which have affinity for AMPA receptors and is effective against cellular necrosis after ischemia in anoxia and hypocalcemia.
The compound of the present invention was dissolved in physiological saline to be adjusted to a dosage of 10 or 20 mg/kg/h just before use.
The control compound was dissolved in physiological saline to be adjusted to a dosage of 3 mg/kg/h just before use.
Occlusion in the middle cerebral artery was conducted according to the method described above. However, the middle cerebral artery was permanently occluded without removing the nylon embolus.
Two hours after the middle cerebral artery was occluded, a syringe containing the medium or the sample (10 or 20 mg/kg/h) was attached to a catheter for intravenous administration, and half (0.31 ml) of the dosage to be infused for 1 hour was intravenously administered for 1 minute. Thereafter, the medium or the sample was administered continuously for 6 hours at a rate of 0.616 ml/h by the use of a syringe pump for infusion. During administration and for 2 hours after administration was finished, the temperature of the rectum was maintained in the range of 37.0 to 38.5° C. in a system for controlling body temperature. After the body temperature control was finished, the animal was returned to a cage and maintained for 1 day in a breeding room.
Two hours after the middle cerebral artery was occluded, a syringe containing the medium or the sample (3 mg/kg/h) was attached to a catheter for intravenous administration, and the medium or the sample was administered continuously for 6 hours at a rate of 0.616 ml/h by means of the syringe pump for infusion. During administration and for 2 hours after administration was finished, the temperature of the rectum was maintained in the range of 37.0 to 38.5° C. in the system for controlling body temperature. After the body temperature control was finished, the animal was returned to a cage and maintained for 1 day in a breeding room.
The middle cerebral artery was permanently occluded by the nylon embolus, and the infarct volume was measured 24 hours after the occlusion was conducted.

mice in a formalin test = assay: Antalgic effect (I) on mice in a formalin test; assay type: in vivo; settings: for average left hind leg-licking time, Mean: formalin 5 minutes later, measured for 5 minutes
Protocol: Antalgic Effect (I) on Mice in a Formalin Test
The antalgic action of the typical example of the compound of the present invention (Example 1) when intravenously administered was examined in the formalin test using mice (3).
ddy Mice (male, 4-week-old) purchased from Nippon SLC Ltd. were used in the experiment.
20.4 mg of the test compound was weighed, and 10.2 ml of 5.28% mannitol was added thereto to prepare 2 mg/ml (20 mg/kg) solution. Then, 3.8 ml of 5.28% mannitol was added to 3.8 ml of the 2 mg/ml solution to prepare 1 mg/ml (10 mg/kg) solution. Finally, 2.5 ml of 5.28% mannitol was added to 2.5 ml of the 1 mg/ml solution to prepare 0.5 mg/ml (5 mg/kg) solution. This test compound was weighed and prepared on the day when the experiment was conducted.
30 μl of commercial 35.0 to 38.0% formaldehyde was added to 970 μl physiological saline. The resulting solution was used as 3% formalin. Because the indicated purity of this commercial formaldehyde is 35.0 to 38.0%, the 3% formalin presently prepared and used is accurately 2.84 to 3.08% formalin.
The treatment group in this test consisted of 4 groups in total, that is, a control group, a 5 mg/kg test compound administration group, a 10 mg/kg administration group, and a 20 mg/kg administration group, and each group consisted of 5 animals.
The control group was given 0.1 ml of 5.28% mannitol per 10 g of the body weight. The test compound was administered at each concentration (0.5 mg/ml, 1 mg/ml, and 2 mg/ml) in an volume of 0.1 ml per 10 g of the body weight into the 5 mg/kg group, 10 mg/kg group and 20 mg/kg group, respectively.
5.28% mannitol was administered via the tail vein into each group given the compound of the present invention or into the control group, and the animals were placed in a transparent plastic observation cage. 5 minutes later, 20 μl of 3% formalin was subcutaneously administered into the bottom of the left hind leg of each mouse. The duration of the behavior of mouse's licking the left hind leg after administration of formalin was measured for 5 minutes and used as an indication of pain. The duration was expressed in second.
In the significant test, parametric one-way layout analysis of variance was conducted and then Dunnet-type multiple comparison was made (*: 0.01<p<0.05, **: p<0.01, vs. the control group). For the test, a statistical analysis assistant system with SAS 6.12 (SAS Institute Japan Ltd., Tokyo) integrated in it was used.

`CC(C)C(C#N)(CCCN1CCN(CCOc2ccc(F)cc2)CC1)c1ccccc1` (stereo not drawn) [Example 1, 1-[(4-Cyano-5-methyl-4-phenyl)hexyl]-4-[2-(4-fluorophenoxy)ethyl]piperazine] was tested. Which pIC50 [1] did it give?
Its pIC50 is 5.23.

And the “degree of reduction of the infarct volume” value ([2]; 10 mg/kg/h i.v.)?
The value was 15%.

What about the “Infarct volume in the cerebral cortex, Mean” value ([2]; 10 mg/kg/h i.v. (table: 10 mg/kg)) of the same compound?
The value was 260.7±13.1 mm^3 and 260.7 mm^3.

What about the “degree of reduction of the infarct volume” value ([2]; 20 mg/kg/h i.v.) of the same compound?
Its value is 30%.

And the “Infarct volume in the cerebral cortex, Mean” value ([2]; 20 mg/kg/h i.v. (table: 20 mg/kg))?
Its value is 215.4±21.3 mm^3 and 215.4 mm^3.

And the “average left hind leg-licking time, Mean” value (mice in a formalin test; 5 mg/kg i.v. (tail vein))?
Its value is 49.4 s.

And the “licking time compared to the control group” value (mice in a formalin test; 5 mg/kg, 10 mg/kg and 20 mg/kg i.v.)?
Its value is “statistically significant reduction in licking time”.

What about the “average left hind leg-licking time, Mean” value (mice in a formalin test; 10 mg/kg i.v. (tail vein)) of the same compound?
The value was 23.6 s.

And the “average left hind leg-licking time, Mean” value (mice in a formalin test; 20 mg/kg i.v. (tail vein))?
The value was 2.2 s.
